Test results from patent US20260226068A1, “IMIDAZOTRIAZINE IL-17A MODULATORS AND USES THEREOF” (DICE ALPHA, INC., priority 2023, published 2026).

Tests used:
IL-17A/F = target: T1, IL-17A/F (Homo sapiens, UniProt Q16552+Q96PD4); assay: IL-17A/F HEK-Blue cell assay (SEAP reporter); assay type: cell-based; settings: HEK-Blue IL-17A reporter cells, IL17A/F 5 ng/mL, 20 hours, SEAP read at A630; read-out: HEK-Blue IL17AF (IC50 for IL-17A/F inhibition)
T1 construct: purchased R&D Systems
T1 sequence (Q16552 24-155): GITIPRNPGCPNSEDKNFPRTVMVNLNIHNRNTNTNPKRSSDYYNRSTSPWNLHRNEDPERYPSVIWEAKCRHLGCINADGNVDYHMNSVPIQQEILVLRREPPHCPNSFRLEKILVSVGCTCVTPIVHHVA
T1 sequence (Q96PD4 31-163): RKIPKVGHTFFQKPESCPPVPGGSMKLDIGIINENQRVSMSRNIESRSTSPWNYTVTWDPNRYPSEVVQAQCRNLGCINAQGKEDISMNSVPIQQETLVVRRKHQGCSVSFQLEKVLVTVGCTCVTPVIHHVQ

IL-17A/A = target: T2, IL-17A/A (Homo sapiens, UniProt Q16552); assay: IL-17A/A HEK-Blue cell assay (SEAP reporter); assay type: cell-based; settings: HEK-Blue IL-17A reporter cells, IL17A/A 5 ng/mL, 20 hours, SEAP read at A630; read-out: HEK-Blue IL17AA (IC50 for IL-17A/A inhibition)
T2 construct: purchased Genscript Z03228
T2 sequence (Q16552 24-155): T1 sequence (Q16552 24-155)

SMILES | IC50 (IL-17A/F) [nM] | IC50 (IL-17A/A) [nM]
Cc1nonc1C(=O)N[C@H](c1cn2nc(C[C@H]3C[C@@H](C(F)(F)F)CNC3=O)c(C3CCCOC3)nc2n1)C1CCC(F)(F)CC1 (single isomer, unassigned) [Compound 265] | > 1000 | < 100
Cc1nonc1C(=O)N[C@H](c1cn2nc(C[C@H]3C[C@@H](C(F)(F)F)CNC3=O)c([C@@H]3CCCOC3)nc2n1)C1CCC(F)(F)CC1 (single isomer, unassigned) [Compound 266] | > 1000 | < 100
Cn1nccc1C(=O)N[C@H](c1cn2nc(C[C@H]3C[C@@H](C(F)(F)F)CNC3=O)c([C@H]3CCCOC3)nc2n1)[C@H]1CCCC(F)(F)C1 (single isomer, unassigned) [Compound 267] | 100 to 1000 | < 100
Cn1nccc1C(=O)N[C@H](c1cn2nc(C[C@H]3C[C@@H](C(F)(F)F)CNC3=O)c([C@@H]3CCCOC3)nc2n1)[C@H]1CCCC(F)(F)C1 (single isomer, unassigned) [Compound 268] | 100 to 1000 | < 100
Cc1nonc1C(=O)N[C@H](c1cn2nc(C[C@H]3C[C@@H](C(F)(F)F)CNC3=O)c([C@H]3CCOC3)nc2n1)C1CCC(F)(F)CC1 (single isomer, unassigned) [Compound 274] | > 1000 | < 100
Cc1nonc1C(=O)N[C@H](c1cn2nc(C[C@H]3C[C@@H](C(F)(F)F)CNC3=O)c([C@@H]3CCOC3)nc2n1)C1CCC(F)(F)CC1 (single isomer, unassigned) [Compound 275] | > 1000 | < 100
CCn1nccc1C(=O)N[C@H](c1cn2nc(C[C@H]3C[C@@H](C(F)(F)F)CNC3=O)c(C3CCOCC3)nc2n1)[C@@H]1CC[C@@H]2C[C@@H]2CC1 (single isomer, unassigned) [Compound 293] | < 100 | < 100
CCn1nccc1C(=O)N[C@H](c1cn2nc(C[C@H]3C[C@@H](C(F)(F)F)CNC3=O)c(C3CCOCC3)nc2n1)C1CC[C@@H]2C[C@@H]2CC1 (single isomer, unassigned) [Compound 294] | < 100 | < 100
CCn1nccc1C(=O)N[C@H](c1cn2nc(C[C@H]3C[C@@H](C(F)(F)F)CNC3=O)c([C@H]3CCOC3)nc2n1)C(C1CC1)C1CC1 (single isomer, unassigned) [Compound 321] | 100 to 1000 | < 100
CCn1nccc1C(=O)N[C@H](c1cn2nc(C[C@H]3C[C@@H](C(F)(F)F)CNC3=O)c([C@@H]3CCOC3)nc2n1)C(C1CC1)C1CC1 (single isomer, unassigned) [Compound 322] | 100 to 1000 | < 100
CCn1nccc1C(=O)N[C@H](c1cn2nc(C[C@H]3C[C@@H](C(F)(F)F)CNC3=O)c(C3Cc4cncnc4C3)nc2n1)C1CCC(F)(F)CC1 (single isomer, unassigned) [Compound 400] | 100 to 1000 | < 100
CCn1nccc1C(=O)N[C@H](c1cn2nc(C[C@H]3C[C@@H](C(F)(F)F)CNC3=O)c(C3Cc4cncnc4C3)nc2n1)C1CCC(F)(F)CC1 (single isomer, unassigned) [Compound 402] | 100 to 1000 | < 100
CCn1ncnc1C(=O)N[C@H](c1cn2nc(C[C@H]3C[C@@H](C(F)(F)F)CNC3=O)c(C3CCOCC3)nc2n1)C1CCCC(F)(F)C1 (stereo in doubt) [Compound 384, N—((S)—((S)-3,3-difluorocyclohexyl)(2-(((3R,5R)-2-oxo-5-(trifluoromethyl)piperidin-3-yl)methyl)-3-(tetrahydro-2H-pyran-4-yl)imidazo[1,2-b][1,2,4]triazin-6-yl)methyl)-1-ethyl-1H-1,2,4-triazole-5-carboxamide] | > 1000 | < 100
Cn1nccc1C(=O)N[C@H](c1cn2nc(CC3C[C@@H](C(F)(F)F)CNC3=O)cnc2n1)C1CCC(F)(F)CC1 (stereo partly drawn) [Compound 3, N—((S)-(4,4-difluorocyclohexyl)(2-(((5R)-2-oxo-5-(trifluoromethyl)piperidin-3-yl)methyl)imidazo[1,2-b][1,2,4]triazin-6-yl)methyl)-1-methyl-1H-pyrazole-5-carboxamide] | > 1000 | 100 to 1000
CC(C)n1nccc1C(=O)N[C@H](c1cn2nc(CC3C[C@@H](C(F)(F)F)CNC3=O)cnc2n1)C1CCC(F)(F)CC1 (stereo partly drawn) [Compound 6, N—((S)-(4,4-difluorocyclohexyl)(2-(((5R)-2-oxo-5-(trifluoromethyl)piperidin-3-yl)methyl)imidazo[1,2-b][1,2,4]triazin-6-yl)methyl)-1-isopropyl-1H-pyrazole-5-carboxamide] | > 1000 | < 100
O=C(N[C@H](c1cn2nc(CC3C[C@@H](C(F)(F)F)CNC3=O)cnc2n1)C1CCC(F)(F)CC1)c1conc1CCF (stereo partly drawn) [Compound 7, N—((S)-(4,4-difluorocyclohexyl)(2-(((5R)-2-oxo-5-(trifluoromethyl)piperidin-3-yl)methyl)imidazo[1,2-b][1,2,4]triazin-6-yl)methyl)-3-(2-fluoroethyl)isoxazole-4-carboxamide] | > 1000 | 100 to 1000

Other lines, results leading:

IC50 (IL-17A/F) [nM] | IC50 (IL-17A/A) [nM] | SMILES
100 to 1000 | < 100 | Cn1nccc1C(=O)N[C@H](c1cn2nc(C[C@H]3C[C@@H](C(F)(F)F)CNC3=O)c([C@@H]3CCCOC3)nc2n1)C1CCC(F)(F)CC1 (single isomer, unassigned) [Compound 264]
100 to 1000 | < 100 | CCn1nccc1C(=O)N[C@H](c1cn2nc(C[C@H]3C[C@@H](C(F)(F)F)CNC3=O)c(C3CCCC(F)(F)C3)nc2n1)C1CCC(F)(F)CC1 (single isomer, unassigned) [Compound 271]
< 100 | < 100 | CCn1nccc1C(=O)N[C@H](c1cn2nc(C[C@H]3C[C@@H](C(F)(F)F)CNC3=O)c([C@@H]3CCCC(F)(F)C3)nc2n1)C1CCC(F)(F)CC1 (single isomer, unassigned) [Compound 272]
> 1000 | 100 to 1000 | CCn1nccc1C(=O)N[C@H](c1cn2nc(C[C@H]3C[C@@H](C(F)(F)F)CNC3=O)c(C3CCN(C)C3)nc2n1)C1CCC(F)(F)CC1 (single isomer, unassigned) [Compound 285]
> 1000 | 100 to 1000 | CCn1nccc1C(=O)N[C@H](c1cn2nc(C[C@H]3C[C@@H](C(F)(F)F)CNC3=O)c([C@@H]3CCCCN3)nc2n1)C1CCC(F)(F)CC1 (single isomer, unassigned) [Compound 324]
> 1000 | 100 to 1000 | CCn1nccc1C(=O)N[C@H](c1cn2nc(C[C@H]3C[C@@H](C(F)(F)F)CNC3=O)c([C@H]3CCCCN3)nc2n1)C1CCC(F)(F)CC1 (single isomer, unassigned) [Compound 325]
> 1000 | < 100 | CCn1nccc1C(=O)N[C@H](c1cn2nc(C[C@H]3C[C@@H](C(F)(F)F)CNC3=O)c([C@@H]3CN(C)CCO3)nc2n1)C1CCC(F)(F)CC1 (single isomer, unassigned) [Compound 376]
> 1000 | 100 to 1000 | CCn1nccc1C(=O)N[C@H](c1cn2nc(C[C@H]3C[C@@H](C(F)(F)F)CNC3=O)c([C@H](C)N3CCOCC3)nc2n1)C1CCC(F)(F)CC1 (single isomer, unassigned) [Compound 381]
> 1000 | < 100 | CCn1nccc1C(=O)N[C@H](c1cn2nc(C[C@H]3C[C@@H](C(F)(F)F)CNC3=O)c([C@H]3CN(C)CCO3)nc2n1)C1CCC(F)(F)CC1 (single isomer, unassigned) [Compound 382]
> 1000 | 100 to 1000 | CCn1nccc1C(=O)N[C@H](c1cn2nc(C[C@H]3C[C@@H](C(F)(F)F)CNC3=O)c([C@@H]3CCCN(C)C3)nc2n1)C1CCC(F)(F)CC1 (single isomer, unassigned) [Compound 401]
> 1000 | < 100 | CCn1nccc1C(=O)N[C@H](c1cn2nc(C[C@H]3C[C@@H](C(F)(F)F)CNC3=O)c(C3CCCN(C)C3)nc2n1)C1CCC(F)(F)CC1 (single isomer, unassigned) [Compound 403]
> 1000 | 100 to 1000 | CCn1nccc1C(=O)N[C@H](c1cn2nc(C[C@H]3C[C@@H](C(F)(F)F)CNC3=O)c(C3COCCN3C)nc2n1)C1CCC(F)(F)CC1 (single isomer, unassigned) [Compound 404]
100 to 1000 | < 100 | CCn1nccc1C(=O)N[C@H](c1cn2nc(C[C@H]3C[C@@H](C(F)(F)F)CNC3=O)c(N3CCN(C)[C@H](C4CC4)C3)nc2n1)C1CCC(F)(F)CC1 (single isomer, unassigned) [Compound 431]
100 to 1000 | < 100 | CCn1nccc1C(=O)N[C@H](c1cn2nc(C[C@H]3C[C@@H](C(F)(F)F)CNC3=O)c(N3CCN(C)C(C4CC4)C3)nc2n1)C1CCC(F)(F)CC1 (single isomer, unassigned) [Compound 432]
> 1000 | 100 to 1000 | CCn1nccc1C(=O)N[C@H](c1cn2nc(C[C@H]3C[C@@H](C(F)(F)F)CNC3=O)c(C3CCN(C)C3)nc2n1)C1CCC(F)(F)CC1 (single isomer, unassigned) [Compound 439]
> 1000 | < 100 | CCn1nccc1C(=O)N[C@H](c1cn2nc(CC3C[C@@H](C(F)(F)F)CNC3=O)c(C3CCOCC3)nc2n1)C1CCC(F)(F)CC1 (stereo in doubt) [Compound 89, N-((1S)-(4,4-difluorocyclohexyl)(2-(((3R,5R)-2-oxo-5-(trifluoromethyl)piperidin-3-yl)methyl)-3-(tetrahydro-2H-pyran-4-yl)imidazo[1,2-b][1,2,4]triazin-6-yl)methyl)-1-ethyl-1H-pyrazole-5-carboxamide]
